Where a SMILES comes first, the peptide text is derived from it.
Experiments:
Format in all cases: functional
Oryctolagus cuniculus [1] = organism: Oryctolagus cuniculus; assay: Effective dose to induce the secretion of beta-glucosaminidase from cytochalasin beta-treated rabbit peritoneal polymorphonuclear leukocytes (neutrophils); conditions: read-out: ED50 (the source's name)
Oryctolagus cuniculus [2] = organism: Oryctolagus cuniculus; assay: Maximum percentage induction of the secretion of beta-glucosaminidase from cytochalasin beta-treated rabbit peritoneal polymorphonuclear leukocytes (neutrophils)
Oryctolagus cuniculus [3] = organism: Oryctolagus cuniculus; assay: Relative potency with respect to HCO-L-Met-L-Leu-L-Phe-OMe (1) was determined

EC50 (Oryctolagus cuniculus [1]) [nM]	Structure (SMILES)	Max (Oryctolagus cuniculus [2]) [%]	Relative potency (Oryctolagus cuniculus [3])
0.027	COC(=O)[C@H](Cc1ccccc1)NC(=O)[C@@](C)(NC(=O)[C@H](CCSC)NC=O)C(C)C	32	2.5
0.13	CSCC[C@H](NC=O)C(=O)N[C@@H](CC(C)C)C(=O)N[C@@H](Cc1ccccc1)C(=O)O	37	0.52
0.068	COC(=O)[C@H](Cc1ccccc1)NC(=O)[C@H](CC(C)C)NC(=O)[C@H](CCSC)NC=O	42	
1.4	COC(=O)[C@H](Cc1ccccc1)NC(=O)C(C)(C)NC(=O)[C@H](CCSC)NC=O (HELM PEPTIDE1{[O=C[*:2]].M.[Aib].F.[CO[*:1]]}$$$$V2.0)	39	0.049
0.17	CC[C@](C)(NC(=O)[C@H](CCSC)NC=O)C(=O)N[C@@H](Cc1ccccc1)C(=O)OC	32	0.4
36	COC(=O)[C@H](Cc1ccccc1)NC(=O)[C@@H](CC(C)C)NC(=O)[C@H](CCSC)NC=O	38	0.0019
0.11	COC(=O)[C@H](Cc1ccccc1)NC(=O)[C@](C)(NC(=O)[C@H](CCSC)NC=O)C(C)C	38	0.62
0.027	COC(=O)[C@H](Cc1ccccc1)NC(=O)[C@](C)(CC(C)C)NC(=O)[C@H](CCSC)NC=O	42	2.5
0.48	CC[C@@](C)(NC(=O)[C@H](CCSC)NC=O)C(=O)N[C@@H](Cc1ccccc1)C(=O)OC	42	0.14
0.052	COC(=O)[C@H](Cc1ccccc1)NC(=O)[C@@](C)(CC(C)C)NC(=O)[C@H](CCSC)NC=O	42	1.3

— ChEMBL document CHEMBL1126484, “Backbone modified formyl-methionyl tripeptide chemoattractants” (1993)
